Results reported in patent US20100190856A1, “Novel Polyhydroxylated Compounds as Fatty Acid Synthase (FASN) Inhibitors” (UNIVERSIDAD COMPLUTENSE DE MADRID, priority 2007, published 2010).
Entries after “also recorded” stand apart in the source; their conditions may differ.

Experiments:
[1] = test system: SK-Br3 breast cancer cells; assay: MTT cytotoxicity assay, SK-Br3 breast cancer cells; format: cell-based, human; settings: Homo sapiens, SK-BR-3, 48 h, MTT, 48 h, read-out: IC50, growth inhibition, SK-Br3
Procedure: (§1) MCF-7 and MDA-MB-231 breast cancer cells were obtained from the American Type Culture Collection (ATCC) and were routinely grown in Dulbecco's modified Eagle's medium (DMEM, Gibco) containing 10% fetal bovine serum (FBS, Bio-Whittaker), 1% L-glutamine, 1% sodium pyruvate, 50 U/mL penicillin and 50 μg/mL streptomycin. SK-Br3 breast cancer cells were obtained from Eucellbank (Universidad de Barcelona, Spain) and were passaged in McCoy's 5 A medium containing 10% FBS, 1% L-glutamine, 1% sodium pyruvate, 50 U/mL penicillin and 50 μg/mL streptomycin. Non-malignant fibroblasts N-1 were obtained from Eucellbank (Universidad de Barcelona, Spain) and were passaged in DMEM medium containing 10% FBS, 1% L-glutamine, 1% sodium pyruvate, 50 U/mL penicillin and 50 μg/mL streptomycin. The cells remained free of Mycoplasma and were propagated in adherent culture according to established protocols. Cells were maintained at 37° C. in a humidified atmosphere of 95% air and 5% CO2.
(§2) Drug sensitivity was determined using a standard colorimetric MTT (3-4,5-dimethylthiazol-2-yl-2,5-diphenyltetrazolium bromide) assay. Briefly, cells were plated out at a density of 7×10^3 cells/100 μL/well in 96-well microtitre plates and allowed an overnight period for attachment. Then the medium was removed and fresh medium along with various concentrations of the tested compound were added to the cultures for a period of 48 h. Following the treatment, the cells were fed with drug-free medium (100 μL/well) and 10 μL of MTT solution (5 mg/mL; Sigma, St. Louis, Mo.), and the incubation was prolonged for 3 h at 37° C. After carefully removing the supernatants, the MTT-formazan crystals formed by metabolically viable cells were dissolved in dimethyl sulphoxide (100 μL/well) and the absorbance was measured at 570 nm in a multi-well plate reader (Model Anthos Labtec 2010 1.7 reader).

[2] = test system: MDA-MB-231 breast cancer cells; assay: MTT cytotoxicity assay, MDA-MB-231 breast cancer cells; format: cell-based, human; settings: Homo sapiens, MDA-MB-231 cells, 48 h, read-out: IC50, growth inhibition, MDA-MB-231
Procedure: as §1, §2

[3] = test system: Non-malignant fibroblasts N-1; assay: MTT cytotoxicity assay, non-malignant fibroblasts N-1; format: cell-based; settings: for IC50: Fibroblast, non-malignant fibroblasts, MTT, 48 h, read-out: IC50, growth inhibition, Fibroblasts; for effects in cell death / morphology changes in non-malignant cells: up to doses three-fold their cytotoxic IC50 value in tumoral cells
Procedure: as §1, §2

FASN = target: T1, FASN (Homo sapiens, UniProt P49327); assay: Fatty acid synthase activity assay in SK-Br3 cells (NADPH oxidation, particle-free supernatants); format: cell-based; design: FASN activity, % of control cells / FASN activity reduced to / reduction of FASN activity: concentration or dose not given beside the values; settings: for inhibition of FASN activity (in words): SK-Br3 cells treated 6, 12 and 24 hours; for FASN activity reduced to: 12 h exposure
T1 construct: endogenous in cells; host or cells: SK-Br3 breast cancer cells
T1 sequence (P49327 whole entry): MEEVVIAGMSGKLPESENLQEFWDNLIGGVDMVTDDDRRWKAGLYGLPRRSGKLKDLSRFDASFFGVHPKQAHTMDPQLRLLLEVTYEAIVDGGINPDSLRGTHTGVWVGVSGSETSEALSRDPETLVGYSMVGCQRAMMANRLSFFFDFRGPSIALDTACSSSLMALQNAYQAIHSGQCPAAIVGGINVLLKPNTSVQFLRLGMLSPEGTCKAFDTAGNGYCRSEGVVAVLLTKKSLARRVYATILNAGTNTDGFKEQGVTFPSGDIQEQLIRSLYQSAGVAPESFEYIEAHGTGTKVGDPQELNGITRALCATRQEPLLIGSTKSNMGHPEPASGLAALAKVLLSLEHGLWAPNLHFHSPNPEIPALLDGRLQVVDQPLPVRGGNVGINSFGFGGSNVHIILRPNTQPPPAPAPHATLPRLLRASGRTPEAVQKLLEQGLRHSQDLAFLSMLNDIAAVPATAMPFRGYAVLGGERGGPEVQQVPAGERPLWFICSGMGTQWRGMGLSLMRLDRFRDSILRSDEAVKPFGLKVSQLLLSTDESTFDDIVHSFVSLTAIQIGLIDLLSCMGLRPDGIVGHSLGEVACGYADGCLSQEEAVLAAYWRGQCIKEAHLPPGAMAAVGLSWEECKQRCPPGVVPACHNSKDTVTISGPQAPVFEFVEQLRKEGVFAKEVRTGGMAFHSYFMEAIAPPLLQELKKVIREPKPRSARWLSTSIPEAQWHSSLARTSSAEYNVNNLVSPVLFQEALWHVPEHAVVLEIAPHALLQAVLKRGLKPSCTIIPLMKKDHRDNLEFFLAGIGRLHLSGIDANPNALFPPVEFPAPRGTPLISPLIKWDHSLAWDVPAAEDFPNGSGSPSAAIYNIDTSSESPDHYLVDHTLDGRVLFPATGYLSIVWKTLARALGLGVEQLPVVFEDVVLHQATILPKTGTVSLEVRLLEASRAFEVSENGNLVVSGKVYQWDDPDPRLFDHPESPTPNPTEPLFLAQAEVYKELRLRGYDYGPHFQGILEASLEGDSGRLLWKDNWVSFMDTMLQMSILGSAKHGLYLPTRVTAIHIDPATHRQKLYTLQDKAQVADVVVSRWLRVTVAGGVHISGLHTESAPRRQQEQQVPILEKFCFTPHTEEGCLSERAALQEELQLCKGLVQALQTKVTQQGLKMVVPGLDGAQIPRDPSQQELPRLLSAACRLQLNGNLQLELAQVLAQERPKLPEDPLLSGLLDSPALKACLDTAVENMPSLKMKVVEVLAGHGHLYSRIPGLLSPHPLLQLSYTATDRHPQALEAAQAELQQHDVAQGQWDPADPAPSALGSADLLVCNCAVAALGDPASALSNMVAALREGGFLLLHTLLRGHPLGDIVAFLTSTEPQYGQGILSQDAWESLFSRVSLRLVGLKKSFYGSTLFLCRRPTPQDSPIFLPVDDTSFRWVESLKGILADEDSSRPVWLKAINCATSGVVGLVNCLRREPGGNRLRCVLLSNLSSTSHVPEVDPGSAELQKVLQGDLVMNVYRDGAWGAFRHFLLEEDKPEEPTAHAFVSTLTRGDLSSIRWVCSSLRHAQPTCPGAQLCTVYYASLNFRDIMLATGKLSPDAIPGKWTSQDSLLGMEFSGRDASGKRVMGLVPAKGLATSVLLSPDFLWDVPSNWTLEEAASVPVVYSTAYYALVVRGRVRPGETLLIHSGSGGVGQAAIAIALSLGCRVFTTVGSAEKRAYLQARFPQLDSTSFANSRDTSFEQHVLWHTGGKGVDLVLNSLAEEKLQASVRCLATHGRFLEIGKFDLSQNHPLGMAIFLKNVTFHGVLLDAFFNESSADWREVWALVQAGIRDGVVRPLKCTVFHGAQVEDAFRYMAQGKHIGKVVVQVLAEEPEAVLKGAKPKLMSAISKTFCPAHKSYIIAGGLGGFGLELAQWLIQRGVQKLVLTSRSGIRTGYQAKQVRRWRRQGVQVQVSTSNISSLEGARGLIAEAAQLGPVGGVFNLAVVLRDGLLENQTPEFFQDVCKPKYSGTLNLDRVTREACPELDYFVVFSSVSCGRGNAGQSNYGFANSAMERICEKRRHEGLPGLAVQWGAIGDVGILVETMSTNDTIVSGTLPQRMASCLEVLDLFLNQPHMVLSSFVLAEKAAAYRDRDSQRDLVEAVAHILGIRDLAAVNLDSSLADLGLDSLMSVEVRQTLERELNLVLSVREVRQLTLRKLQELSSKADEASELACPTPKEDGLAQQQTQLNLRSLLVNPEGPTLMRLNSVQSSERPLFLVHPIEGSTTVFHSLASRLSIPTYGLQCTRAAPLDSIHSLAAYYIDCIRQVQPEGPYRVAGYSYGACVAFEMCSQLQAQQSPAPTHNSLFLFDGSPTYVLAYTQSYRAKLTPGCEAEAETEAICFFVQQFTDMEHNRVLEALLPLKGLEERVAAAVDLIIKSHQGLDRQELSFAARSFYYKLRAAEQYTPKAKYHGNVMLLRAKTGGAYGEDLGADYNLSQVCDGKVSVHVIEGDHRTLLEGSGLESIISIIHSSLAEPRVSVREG
Procedure: FASN activity of compounds a, b, e, f, h, i, k, m and q was assayed in particle-free supernatants by recording spectrophotometrically at 37° C. (Lambda Bio 20, Perkin Elmer, EUA; using UV Kinlab 2.80.02 software) the decrease of A340nm due to the oxidation of NADPH, as we previously described. After 6, 12, 24 h of exposure to the tested compound, the cells were harvested by treatment with trypsin-EDTA solution, pelleted by centrifugation, washed twice and resuspended in cold PBS. The cells were sonicated during 30 min at 4° C. (PSelecta ultrasons) and centrifuged for 15 min at 4° C. to keep supernatants particle-free. A sample was taken to measure the protein content by a BioRad assay (Bio-Rad Laboratories). One-hundred and twenty micrograms of protein were pre-incubated during 15 min at 37° C. in 0.2 M of potassium phosphate buffer, pH 7.0, for temperature equilibration. The sample was then added to the reaction mixture: 200 mM potassium phosphate buffer, pH 7.0, 1 mM EDTA (Sigma), 1 mM dithiothreitol (Sigma), 30 μM acetyl-CoA (Sigma), 0.24 mM NADPH (Sigma), in 0.3 mL reaction volume were monitored at 340 nm for 3 min to measure the background NADPH oxidation. After the addition of 50 μM of malonyl-CoA (Sigma), the reaction was assayed for additional 10 min to determine FASN-dependent oxidation of NADPH. Rates were corrected for the background rate of NADPH oxidation in the presence of acetyl-CoA. FASN activity was expressed in nmol NADPH oxidized min^−1 mg protein^−1.

[4] = test system: MCF-7 breast cancer cells; assay: MTT cytotoxicity assay, MCF-7 breast cancer cells; format: cell-based, human; settings: Homo sapiens, MCF7, MCF-7 cells, 48 h, read-out: IC50, growth inhibition, MCF-7
Procedure: as §1, §2

melting point | SMILES | IC50 [1] [µM] | IC50 [2] [µM] | IC50 [3] [µM] | effects in cell death / morphology changes in non-malignant cells [3] | inhibition of FASN activity (in words) (FASN) | FASN activity reduced to (FASN; SK-Br3 cells) [%] | IC50 [4] [µM] | FASN activity, % of control cells (FASN; SK-Br3 cells, 24 h exposure) [%]
286 °C (dec.) | O=C(Oc1ccc(-c2ccc(OC(=O)c3ccc(O)c(O)c3)cc2)cc1)c1ccc(O)c(O)c1 [t, 4,4′-bis[(3,4-dihydroxybenzoyl)oxy]-1,1′-biphenyl] | 90 | – | – | – | – | – | – | –
– | O=C(Oc1cc(OC(=O)c2ccc(O)c(O)c2)c2ccccc2c1)c1ccc(O)c(O)c1 [h, 1,3-bis[(3,4-dihydroxybenzoyl)oxy]naphthalene] | 20.7 ± 11.5 | 19 ± 1.1 | 105 | No significant effects | inhibit FASN activity | 77 | – | –
– | COC(=O)c1cc(OC(=O)c2cc(O)c(O)c(O)c2)c2ccccc2c1OC(=O)c1cccc(O)c1 [dd, methyl 1-[(3-hydroxybenzoyl)oxy]-4-[(3,4,5-trihydroxybenzoyl)oxy]-2-naphthoate] | 15.5 ± 3.5 | – | 39.5 ± 6.4 | No significant effects | – | – | – | –
240 °C (dec.) | COc1cc(C(=O)Oc2ccc(-c3ccc(OC(=O)c4ccc(O)c(O)c4)cc3)cc2)cc(O)c1O [v, 4′[(3,4-dihydroxybenzoyl)oxy]-1,1′-biphenyl-4-yl 3,4-dihydroxy-5-methoxybenzoate] | < 1 | – | – | – | – | – | – | –
– | O=C(Oc1cccc2c(OC(=O)c3cc(O)c(O)c(O)c3)cccc12)c1cc(O)c(O)c(O)c1 [m, 1,5-bis[(3,4,5-trihydroxybenzoyl)oxy]naphthalene] | 25.7 ± 3 | 186 ± 10 | > 150 | No significant effects | inhibit FASN activity; also recorded: decreased in a time-dependent manner | 77 | 69 ± 14 | 76
204 °C (dec.) | Cc1c(O)cc(C(=O)Oc2ccc(OC(=O)c3cc(O)c(C)c(O)c3)c3c2CCCC3)cc1O [aa, 1,4-bis[(3,5-dihydroxy-4-methylbenzoyl)oxy]-5,6,7,8-tetrahydronaphthalene] | 49.5 ± 4.9 | – | – | – | – | – | – | –
82 to 84 °C | O=C(Oc1ccc(OC(=O)c2ccccc2)c(-c2ccccc2)c1)c1cc(O)c(O)c(O)c1 [p, 6-(benzoyloxy)-1,1′-biphenyl-3-yl 3,4,5-trihydroxybenzoate] | 73.5 ± 4.9 | > 150 | – | – | – | – | – | –
252 to 254 °C | O=C(Oc1ccc(-c2ccc(OC(=O)c3cc(O)c(Br)c(O)c3)cc2)cc1)c1ccc(O)c(O)c1 [u, 4′[(3,4-dihydroxybenzoyl)oxy]-1,1′-biphenyl-4-yl 4-bromo-3,5-dihydroxybenzoate] | 31 | – | – | – | – | – | – | –
– | O=C(Oc1cc(OC(=O)c2cc(O)c(Br)c(O)c2)c2ccccc2c1)c1cc(O)c(Br)c(O)c1 [w, 1,3-bis[(4-bromo-3,5-dihydroxybenzoyl)oxy]naphthalene] | 46.7 ± 11.7 | – | 79.5 ± 14.8 | No significant effects | – | – | – | –
285 °C (dec.) | O=C(Oc1ccc(-c2ccc(OC(=O)c3cc(O)nc(O)c3)cc2)cc1)c1cc(O)nc(O)c1 [r, 4,4′-bis[(2,6-dihydroxyisonicotinoyl)oxy]-1,1′-biphenyl] | – | – | – | – | – | – | – | –
– | COc1cc(OC(=O)c2cc(O)c(O)c(O)c2)ccc1OC(=O)c1cc(O)c(O)c(O)c1 [d, 2-methoxy-1,4-bis[(3,4,5-trihydroxybenzoyl)oxy]benzene] | 8.3 ± 1.1 | 28 ± 1 | > 50 | No significant effects | – | – | 30 ± 0.1 | –
– | Cc1cc(OC(=O)c2cc(O)c(O)c(O)c2)ccc1OC(=O)c1cc(O)c(O)c(O)c1 [c, 2-methyl-1,4-bis[(3,4,5-trihydroxybenzoyl)oxy]benzene] | 23.3 ± 2.1 | 54.7 ± 7.6 | > 100 | No significant effects | – | – | 4.5 | –
– | O=C(Oc1ccc(-c2ccc(OC(=O)c3cc(O)cc(O)c3)cc2)cc1)c1cc(O)cc(O)c1 [s, 4,4′-bis[(3,5-dihydroxybenzoyl)oxy]-1,1′-biphenyl] | 7.3 ± 2 | 5.75 ± 2 | 33 ± 3 | No significant effects | – | – | – | –
– | O=C(Oc1ccc(OC(=O)c2cc(O)c(O)c(O)c2)c2c1CCCC2)c1cc(O)c(O)c(O)c1 [z, 1,4-bis[(3,4,5-trihydroxybenzoyl)oxy]-5,6,7,8-tetrahydronaphthalene] | 41 ± 3 | 104 ± 10 | 128 ± 32 | No significant effects | – | – | 43 ± 10 | –
– | O=C(Oc1ccc2cc(OC(=O)c3cc(O)c(O)c(O)c3)ccc2c1)c1cc(O)c(O)c(O)c1 [l, 2,6-bis[(3,4,5-trihydroxybenzoyl)oxy]naphthalene] | 5.5 ± 1 | 15.3 ± 1 | > 200 | No significant effects | – | – | 13 ± 1.8 | –
260 °C (dec.) | COc1cc(C(=O)Oc2cc(OC(=O)c3cc(O)c(O)c(OC)c3)c3ccccc3c2)cc(O)c1O [x, 1,3-bis[(3,4-dihydroxy-5-methoxybenzoyl)oxy]naphthalene] | 3 | – | – | – | – | – | – | –
– | O=C(Oc1cc2c(c(OC(=O)c3cc(O)c(O)c(O)c3)c1)CCCC2)c1cc(O)c(O)c(O)c1 [y, 1,3-bis[(3,4,5-trihydroxybenzoyl)oxy]-5,6,7,8-tetrahydronaphthalene] | 31 ± 3 | 98 ± 11 | > 150 | No significant effects | – | – | 81 ± 16 | –
201 to 203 °C | O=C(Oc1ccc(OC(=O)c2cc(O)cc(O)c2)c2ccccc12)c1cc(O)cc(O)c1 [j, 1,4-bis[(3,5-dihydroxybenzoyl)oxy]naphthalene] | 115 ± 7.1 | 24 ± 0.9 | – | – | – | – | – | –
– | O=C(Oc1ccc(OC(=O)c2ccc(O)c(O)c2)c2ccccc12)c1ccc(O)c(O)c1 [k, 1,4-bis[(3,4-dihydroxybenzoyl)oxy]naphthalene] | 37.5 ± 6.4 | 27 ± 11.3 | 68 | No significant effects | inhibit FASN activity | 44 | 49.3 ± 10 | –
– | COC(=O)c1cc(OC(=O)c2cc(O)c(O)c(O)c2)c2ccccc2c1OC(=O)c1ccc(O)cc1 [ee, methyl 1-[(4-hydroxybenzoyl)oxy]-4-[(3,4,5-trihydroxybenzoyl)oxy]-2-naphthoate] | 33 ± 1.4 | – | 67.5 ± 4.9 | No significant effects | – | – | – | –
– | COC(=O)c1cc(OC(=O)c2cc(O)c(O)c(O)c2)c2ccccc2c1OC(=O)c1cc(O)c(Br)c(O)c1 [cc, methyl 1-[(4-bromo-3,5-dihydroxybenzoyl)oxy]-4-[(3,4,5-trihydroxybenzoyl)oxy]-2-naphthoate] | 16.5 ± 4.9 | – | 91.5 ± 2.1 | No significant effects | – | – | – | –
